This is an account of results in patent publication US20240150339A1, “Compounds and Their Use as PDE4 Activators” (Mironid Limited, priority 2021, published 2024).

The test system of assay [1] is m-IMCD3 cells. Nature of the assay: Inhibition of PGE2-stimulated in vitro cyst formation in 3D culture of m-IMCD3 cells. It counts as cell-based, mouse. Conditions: Mus musculus, mIMCD3, 144 h; 10 μM test compound; mean cyst area (%) compared to 100% for (DMSO + PGE2) and 0% for DMSO control; 100 nM PGE2; 6 days; read-out: % Cyst area after incubation with 10 μM test compound. The method, boiled down:
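Mouse m-IMCD3 cells grown in 3D collagen I/Matrigel gels. From 18-24 h after plating, compound (0.1% DMSO) plus 100 nM PGE2 were added and replenished at 2-3 days. After 6 days, imaging gave mean cyst area, scaled to 100% for DMSO+PGE2 and 0% for DMSO alone.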

Assay [2] has as its target T1, PDE4C3 (Homo sapiens, UniProt Q08493).
T1 construct: Using Full-Length Human PDE4 Isoforms: Long Forms PDE4D5, PDE4C3, PDE4B1 and Short Form PDE4B2; made in house; host or cells: HEK 293 transfected with pcDNA3.1 or pDEST PDE4 expression vector; cytosol fraction of the lysate by analogy to PDE4D5
Nature of the assay: PDE assay, activation of full-length human PDE4C3 long form ([3H]cAMP radio-assay). It counts as biochemical. Conditions: 30 μM test compound; mean % increase in counts over basal activity. From the text:
Experiment 1: Measurement of Modulation of Enzyme Activity by PDE4 Long Form Activators of the Present Invention Using Full-Length Human PDE4 Isoforms: Long Forms PDE4D5, PDE4C3, PDE4B1 and Short Form PDE4B2
(Marchmont, R. J. and Houslay, M. D. Biochem. J. 187: 381-92, 1980)
For transient transfection of exogenous PDE4 long isoforms, HEK 293 cells were transfected with pcDNA3.1 or pDEST™ PDE4 expression vectors using Lipofectamine LTX/Plus reagent (Invitrogen) as outlined by the manufacturer. […]
HEK-PDE4D5 cells were seeded out in 100 mm plates and incubated at 37° C. in an atmosphere of 5% CO2, 95% air. Cell lysates were prepared using KHEM buffer [50 mM KCl, 10 mM EGTA, 50 mM HEPES (pH 7.2), 1.92 mM MgCl2].
To prepare the cell lysates, the 100 mm plates containing the cells were placed on ice and washed with ice-cold PBS (phosphate buffered saline, pH 7.4). KHEM buffer (500 μl) was added to the cells. Cells were then scraped off the plate and triturated using a needle (BD Microlance™ 0.8, 40 mm). The lysed cells were then centrifuged at 2000 rpm for 10 minutes to remove cell debris and the supernatant (cell lysate containing recombinant PDE4D5) was transferred to a fresh tube and kept on ice.
The cell lysate containing recombinant PDE4D5 was transferred into a centrifuge tube and placed into an ultracentrifuge (BECKMAN COULTER) and spun at high speed (100,000 g) for 30 minutes at 4° C. The cytosol fraction was then collected and its protein amount determined using a BCA protein assay.
PDE assays were performed in thin walled V-bottomed 96-well plates. The assays were performed at a final concentration of 10 mM Tris/5 mM MgCl2 μlus PDE4D5 cell lysate cytosol fraction, containing over-expressed PDE4D5, with and without test compound. The lysate/compound mix were incubated together for 15 min at room temperature on an orbital shaker prior to addition of [^3H] cAMP (final concentration 1 μM [^3H] cAMP; Perkin Elmer) to a final volume of 50 μl per reaction. The reactions were then incubated for 10 minutes at 30° C., terminated by heating for 2 min at 95° C. and allowed to cool. Snake venom (12.5 μl of 1 mg/ml; Crotalus atrox, Sigma) was then added and the plates were agitated and incubated for a further 15 minutes at 30° C. Dowex ion exchange resin (Sigma, chloride form, 200-400 mesh; 200 μl; prepared as a 1:1 Dowex: water stock, thoroughly re-suspended and diluted 2:1 with ethanol) was then added to each well and the plates incubated for 15 min at room temperature on an orbital shaker ensuring sufficient agitation for resin suspension (550 RPM). The reaction mixture was then transferred to a 96 well filter plate (Millipore; […] pore size) and filtered into a receiving 96-well plate to remove the dowex suspension. 30 μL of the filtered solution was then transferred to the wells of an Opti-plate (Perkin Elmer) 96 well assay plate and 120 μl of Microscint 40 scintillation fluid was added. The plate was then placed on an orbital shaker for 10 min at high speed (900 RPM) to mix the sample with scintillation fluid prior to quantitation using a plate based scintillation counter (Top-Count).
The % increase in counts in the presence of test compound at a particular concentration indicates the % increase in enzyme activity at that concentration.

T1 sequence (Q08493 1-680 isoform Q08493-3): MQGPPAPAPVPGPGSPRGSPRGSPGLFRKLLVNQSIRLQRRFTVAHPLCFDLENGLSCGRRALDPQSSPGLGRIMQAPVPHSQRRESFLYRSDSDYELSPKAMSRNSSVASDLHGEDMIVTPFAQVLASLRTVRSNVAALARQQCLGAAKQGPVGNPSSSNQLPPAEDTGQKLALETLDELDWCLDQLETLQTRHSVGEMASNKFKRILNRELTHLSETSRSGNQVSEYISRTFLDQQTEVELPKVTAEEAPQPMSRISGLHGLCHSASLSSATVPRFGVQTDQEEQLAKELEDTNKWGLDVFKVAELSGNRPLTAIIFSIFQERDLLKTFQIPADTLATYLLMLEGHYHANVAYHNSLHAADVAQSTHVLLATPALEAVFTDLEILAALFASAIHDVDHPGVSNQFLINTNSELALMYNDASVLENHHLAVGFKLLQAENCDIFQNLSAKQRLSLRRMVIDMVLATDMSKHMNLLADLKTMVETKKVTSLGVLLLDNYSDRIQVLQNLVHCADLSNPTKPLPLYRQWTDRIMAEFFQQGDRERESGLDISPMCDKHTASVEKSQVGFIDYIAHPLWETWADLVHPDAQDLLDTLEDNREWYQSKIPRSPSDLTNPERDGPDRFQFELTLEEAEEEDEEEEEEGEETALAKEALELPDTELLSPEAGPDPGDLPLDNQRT

As to `Cc1ncccc1-c1nc2ccc(C(=O)N[C@H]3CCOc4ccccc43)cc2s1` [Example 7, (S)-N-(chroman-4-yl)-2-(2-methylpyridin-3-yl)benzo[d]thiazole-6-carboxamide], the activity at 10 µM in assay [1] is -7%. In assay [2], this compound showed an activation at 30 µM of 105%.
